The test system of this assay is CAPAN2 cells. Put plainly: WST-1 colorimetric cell viability assay in CAPAN2 cells. The class given is cell-based, human. Particulars: for IC20 / IC50: Homo sapiens, Capan-2, CAPAN2 cell survival; for cell death: at 300 nM, 48 hrs. The method, then:
The human pancreatic cancer cell line CAPAN2, was purchased from the American Type Culture Collection (ATCC; Manassas, Va.). Cells were grown in McCoy's Modified 5A media supplemented with 10% FCS, 1× penicillin/streptomycin and 1× amphotericin. For testing, cells were released from the dishes by treatment with PBS (without calcium) for ˜30 min followed by 0.25% trypsin-EDTA for 5 minutes at 37 C. Cells were collected in a 15 ml centrifuge tube and spun down in a clinical centrifuge for 5 min and then re-suspended in 1 ml of fresh media and the cells were counted using a hemocytometer. Cells (1×10^3-5×10^3) were then seeded into 96-well plates in 100 μL of media and the cells were incubated for 48 hours. After 48 hours, the media was replaced and the cells were re-incubated for another 24 hours prior to treatment with the drugs.
Stock drug solutions were prepared in complete media from master stock solutions prepared in DMSO according to the manufacturer's instructions. Using these stock solutions, 1:1, 2:1, 5:1, and 10:1 volume-volume (v/v) mixtures of regorafenib and trametinib were prepared. These mixtures were then two-fold serially diluted to generate a range of 20 concentrations in each case. The cells were incubated in drug mixtures for 48-72 hours before cell viability assay/assessment.
Cell viability was determined using a WST-1 colorimetric cell proliferation assay (Roche), according to manufacturer's instructions. The stable tetrazolium salt WST-1 is cleaved to a soluble formazan by a complex cellular mechanism that occurs primarily at the cell surface. This reduction is largely dependent on the glycolytic production of NAD(P)H in viable cells. Therefore, the amount of formazan dye formed, and estimated using a spectrophotometer (BIO-TEK 340, BIOTEK) directly correlates to the number of metabolically active cells in the culture. All testing points were done at least in triplicate.
On the technique in general: Tetrazolium dyes change colour on reduction, which living cells bring about.

The mark [1] stands for this setting: monotherapy, two-fold serial dilution 2 nM to 1 mM, 48-72 hours.

SMILES strings stand for the structures.

Take `Nc1ccn([C@@H]2O[C@H](CO)[C@@H](O)C2(F)F)c(=O)n1` [gemcitabine]: the “effect on CAPAN2 cell survival (in words)” value (CAPAN2 cells, 48-72 hours) was “little, if any, effect on cell survival”. Moreover, for the setting “CAPAN2 cells, concentration of 1 mM, 48-72 hours”, the “maximum decrease in cell viability” value is −30%. For the same compound, under setting [1], the IC20 turned out to be 111000 nM.

With `CC(=O)Nc1cccc(-n2c(=O)n(C3CC3)c(=O)c3c(Nc4ccc(I)cc4F)n(C)c(=O)c(C)c32)c1` [trametinib], the cell death (CAPAN2 cells) is on record as −10%. The compound also displayed an IC50 (100 μM to 0.2 nM, 48-72 hours) of 0.028 µM. This compound came in with a concentration for an effect of 20% (IC20) (48-72 hours) of 4 nM.

Take `CNC(=O)c1cc(Oc2ccc(NC(=O)Nc3ccc(Cl)c(C(F)(F)F)c3)c(F)c2)ccn1` [regorafenib]: the “effect on CAPAN2 cell survival (in words)” value (CAPAN2 cells, 48-72 hours) was “significant reduction in cell survival”. For the same compound, for the setting “CAPAN2 cells”, the cell death is given as −2%. This compound showed an IC50 (2 nM to 1 mM) of 7.1 µM. Further, under setting [1], the IC20 was determined as 2000 nM.

The IC20 is the concentration at which the effect reaches the 20% level. A higher IC20 goes with weaker potency. As usually defined, the IC50 is the midpoint of a concentration-inhibition curve. Read a high IC50 as weaker potency.

Source of the values: US20200237764A1, “DRUG COMBINATIONS FOR TARGETING MULTIPLE MUTATIONS IN CANCER” (CureMatch, Inc., priority 2017, published 2020).
